Experimental data published in BindingDB's records for patent US20250136608 (Cgenetech (Suzhou, China) Co., 2025).

Assays:
[1] = target: T1, Tyrosine-protein kinase JAK3 (Homo sapiens, UniProt P52333); test: JAK3 Kinase Inhibitory Activity Assay
T1 sequence (P52333 whole entry): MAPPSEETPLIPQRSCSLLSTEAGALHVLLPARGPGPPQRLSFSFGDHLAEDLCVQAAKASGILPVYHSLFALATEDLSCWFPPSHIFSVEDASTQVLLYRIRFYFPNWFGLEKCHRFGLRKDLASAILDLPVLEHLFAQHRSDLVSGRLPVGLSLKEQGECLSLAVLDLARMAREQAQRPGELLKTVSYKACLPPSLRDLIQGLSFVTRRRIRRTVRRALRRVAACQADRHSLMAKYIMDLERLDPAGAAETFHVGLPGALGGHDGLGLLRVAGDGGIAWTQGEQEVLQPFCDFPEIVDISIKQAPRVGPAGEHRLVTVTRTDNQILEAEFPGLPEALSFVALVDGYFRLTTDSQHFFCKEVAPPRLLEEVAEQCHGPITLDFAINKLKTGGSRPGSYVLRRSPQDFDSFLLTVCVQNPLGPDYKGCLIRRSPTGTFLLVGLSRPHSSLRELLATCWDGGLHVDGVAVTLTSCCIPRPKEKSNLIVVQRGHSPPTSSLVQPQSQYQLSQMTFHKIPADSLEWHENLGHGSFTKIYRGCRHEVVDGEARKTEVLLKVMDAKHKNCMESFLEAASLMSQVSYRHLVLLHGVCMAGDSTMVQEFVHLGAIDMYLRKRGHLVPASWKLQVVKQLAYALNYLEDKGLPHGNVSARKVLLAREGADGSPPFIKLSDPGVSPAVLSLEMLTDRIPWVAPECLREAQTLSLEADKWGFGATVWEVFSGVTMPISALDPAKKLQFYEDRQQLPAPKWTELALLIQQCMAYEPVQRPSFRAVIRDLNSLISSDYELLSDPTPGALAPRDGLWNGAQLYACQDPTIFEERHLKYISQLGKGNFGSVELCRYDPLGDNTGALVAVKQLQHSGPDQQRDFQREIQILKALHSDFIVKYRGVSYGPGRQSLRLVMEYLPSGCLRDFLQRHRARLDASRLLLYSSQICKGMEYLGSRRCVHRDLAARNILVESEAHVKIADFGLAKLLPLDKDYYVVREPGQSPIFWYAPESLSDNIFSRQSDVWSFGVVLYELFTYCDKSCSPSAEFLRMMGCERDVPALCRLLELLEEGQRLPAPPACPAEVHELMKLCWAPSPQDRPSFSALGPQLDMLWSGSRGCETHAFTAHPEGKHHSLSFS

[2] = target: Tyrosine-protein kinase JAK2 (Homo sapiens, UniProt O60674); test: JAK2 Kinase Inhibitory Activity Assay
Tyrosine-protein kinase JAK2, sequence (O60674 whole entry): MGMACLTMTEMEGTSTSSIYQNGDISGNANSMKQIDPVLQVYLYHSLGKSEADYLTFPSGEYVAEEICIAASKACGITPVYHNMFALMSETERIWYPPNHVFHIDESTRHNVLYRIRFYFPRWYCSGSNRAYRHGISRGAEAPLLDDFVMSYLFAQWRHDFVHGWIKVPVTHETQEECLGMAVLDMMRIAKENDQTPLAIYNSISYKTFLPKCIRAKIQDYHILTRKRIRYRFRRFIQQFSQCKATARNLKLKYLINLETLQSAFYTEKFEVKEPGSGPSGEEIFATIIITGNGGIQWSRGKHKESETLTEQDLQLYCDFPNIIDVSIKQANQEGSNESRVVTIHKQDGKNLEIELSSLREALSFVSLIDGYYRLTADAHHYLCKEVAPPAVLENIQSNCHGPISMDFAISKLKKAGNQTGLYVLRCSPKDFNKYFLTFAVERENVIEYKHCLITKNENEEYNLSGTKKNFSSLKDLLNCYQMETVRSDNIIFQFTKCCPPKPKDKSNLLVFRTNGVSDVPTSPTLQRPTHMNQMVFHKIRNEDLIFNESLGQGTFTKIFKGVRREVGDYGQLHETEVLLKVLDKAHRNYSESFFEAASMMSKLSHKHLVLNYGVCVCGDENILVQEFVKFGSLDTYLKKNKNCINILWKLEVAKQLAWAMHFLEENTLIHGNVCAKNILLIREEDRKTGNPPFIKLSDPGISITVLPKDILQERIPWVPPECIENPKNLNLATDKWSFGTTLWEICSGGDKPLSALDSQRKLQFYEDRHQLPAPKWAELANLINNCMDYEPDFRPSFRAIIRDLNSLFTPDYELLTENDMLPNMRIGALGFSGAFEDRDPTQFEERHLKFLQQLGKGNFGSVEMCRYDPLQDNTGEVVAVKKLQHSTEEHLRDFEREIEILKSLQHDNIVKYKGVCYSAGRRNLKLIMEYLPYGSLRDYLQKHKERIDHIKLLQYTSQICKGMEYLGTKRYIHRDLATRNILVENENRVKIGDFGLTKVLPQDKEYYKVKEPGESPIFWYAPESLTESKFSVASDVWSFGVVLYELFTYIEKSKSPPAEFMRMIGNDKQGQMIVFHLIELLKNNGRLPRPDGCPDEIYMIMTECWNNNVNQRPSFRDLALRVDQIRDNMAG

For `N#CCC1(n2cc(-c3ncnc4[nH]ccc34)cn2)CCC(F)(F)CC1` [US20250136608, Compound 1], which IC50 [1] is on record?
Its IC50 is 241 nM.

What about the IC50 [2] of the same compound?
The IC50 was 2.8 nM.
